How the values were obtained:
Format in all cases: in vivo
[1] = test system: lambsquarters (Chenopodium album); experiment: Test B preemergence; details: scale 0 to 100, 0 no effect, 100 complete control
Outline: (§1)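 Pre: seeded pots sprayed, chemical in non-phytotoxic solvent/surfactant mix. Post: plants 2–18 cm, 1–4 leaf, same formulation. Greenhouse 13–15 d; visual % control vs untreated, 0–100 scale.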

[2] = test system: giant foxtail (Setaria faberii); experiment: Test B preemergence; details: scale 0 to 100, 0 no effect, 100 complete control
Outline: as §1

corn (Zea mays) [3] = experiment: Test B preemergence; details: scale 0 to 100, 0 no effect, 100 complete control
Outline: as §1

rice (Oryza saliva) = experiment: Test B preemergence; details: Preemergence, Rate 500 g/ha; scale 0 to 100, 0 no effect, 100 complete control
Outline: as §1

[4] = test system: morning glory (Ipomoea hederacea); experiment: Test B preemergence; details: Preemergence, Rate 500 g/ha; scale 0 to 100, 0 no effect, 100 complete control
Outline: as §1

[5] = test system: pigweed (Amaranthus retroflexus); experiment: Test B preemergence; details: Preemergence, Rate 500 g/ha; scale 0 to 100, 0 no effect, 100 complete control
Outline: as §1

[6] = test system: barnyardgrass (Echinochloa crus-galli); experiment: Test B preemergence; details: scale 0 to 100, 0 no effect, 100 complete control
Outline: as §1

[7] = test system: Surinam grass (Brachiaria decumbens); experiment: Test B preemergence; details: scale 0 to 100, 0 no effect, 100 complete control
Outline: as §1

[8] = test system: cocklebur (Xanthium strumarium); experiment: Test B preemergence; details: scale 0 to 100, 0 no effect, 100 complete control
Outline: as §1

[9] = test system: crabgrass (Digitaria sanguinalis); experiment: Test B preemergence; details: scale 0 to 100, 0 no effect, 100 complete control
Outline: as §1

[10] = test system: velvetleaf (Abutilon theophrasti); experiment: Test B preemergence; details: Preemergence, Rate 500 g/ha; scale 0 to 100, 0 no effect, 100 complete control
Outline: as §1

[11] = test system: smallflower flatsedge (Cyperus difformis); experiment: Test C flooded paddy test; details: for Flatsedge plant response rating: Flooded Paddy, scale 0 to 100, 0 no effect, 100 complete control; for Plant response rating, Flatsedge: flooded paddy test, scale 0 to 100 (0 no effect, 100 complete control)
Outline: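 Rice and three paddy weeds were grown to the 2-leaf stage under flooded conditions, then treated and kept in a greenhouse for 12–14 days. Response was rated visually against untreated controls on a 0–100 scale, where 100 is complete control.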

Sunflower [12] = experiment: Test C preemergence; details: Rate 250 g/ha, visual evaluation after 12 to 14 days
[13] = test system: lambsquarters (Chenopodium album); experiment: Test B postemergence; details: 13 to 15 days
Outline: as §1

[14] = test system: giant foxtail (Setaria faberii); experiment: Test B postemergence; details: 13 to 15 days
Outline: as §1

corn (Zea mays) [15] = experiment: Test B postemergence; details: 13 to 15 days
Outline: as §1

[16] = test system: blackgrass (Alopecurus myosuroides); experiment: Test B postemergence; details: 13 to 15 days
Outline: as §1

[17] = test system: morning glory (Ipomoea hederacea); experiment: Test B postemergence; details: 13 to 15 days
Outline: as §1

[18] = test system: pigweed (Amaranthus retroflexus); experiment: Test B postemergence; details: 13 to 15 days
Outline: as §1

[19] = test system: barnyardgrass (Echinochloa crus-galli); experiment: Test B postemergence; details: 13 to 15 days
Outline: as §1

[20] = test system: Surinam grass (Brachiaria decumbens); experiment: Test B postemergence; details: 13 to 15 days
Outline: as §1

[21] = test system: cocklebur (Xanthium strumarium); experiment: Test B postemergence; details: 13 to 15 days
Outline: as §1

[22] = test system: wheat (Triticum aestivum); experiment: Test B postemergence; details: 13 to 15 days
Outline: as §1

wild oat (Avena fatua) = experiment: Test B postemergence; details: 13 to 15 days
Outline: as §1

[23] = test system: crabgrass (Digitaria sanguinalis); experiment: Test B postemergence; details: 13 to 15 days
Outline: as §1

[24] = test system: velvetleaf (Abutilon theophrasti); experiment: Test B postemergence; details: 13 to 15 days
Outline: as §1

Sunflower [25] = experiment: Test C preemergence; details: Rate 125 g/ha, scale 0 to 100, 0 no effect, 100 complete control
[26] = Rate 125 g/ha, scale 0 (no effect) to 100 (complete control)
[27] = Rate 500 g/ha, scale 0 to 100, 0 is no effect, 100 is complete control

O=C1C(n2ccc(C3CCC3)n2)SCN1c1cccc(C(F)(F)F)c1 (centres unmarked) [Compound 37]
Plant response rating, Lambsquarters ([1]; Preemergence, Rate 500 g/ha): 100 | Plant response rating, Lambsquarters ([1]; preemergence, Rate 125 g/ha): 100 | Plant response rating, Foxtail, Giant ([2]; Preemergence, Rate 500 g/ha): 100 | Plant response rating, Foxtail, Giant ([2]; preemergence, Rate 125 g/ha): 40 | Plant response rating, Corn (corn (Zea mays) [3]; Preemergence, Rate 500 g/ha): 0 | Plant response rating, Corn (corn (Zea mays) [3]; preemergence, Rate 125 g/ha): 0 | Plant response rating, Rice (rice (Oryza saliva)): 0 | Plant response rating, Morningglory [4]: 0 | Plant response rating, Pigweed [5]: 100 | Plant response rating, Barnyardgrass ([6]; Preemergence, Rate 500 g/ha): 100 | Plant response rating, Barnyardgrass ([6]; preemergence, Rate 125 g/ha): 0 | Plant response rating, Surinam grass ([7]; Preemergence, Rate 500 g/ha): 0 | Plant response rating, Surinam grass ([7]; preemergence, Rate 125 g/ha): 0 | Plant response rating, Cocklebur ([8]; preemergence, Rate 125 g/ha): 0 | Plant response rating, Crabgrass ([9]; Preemergence, Rate 500 g/ha): 100 | Plant response rating, Crabgrass ([9]; preemergence, Rate 125 g/ha): 0 | Plant response rating, Velvetleaf [10]: 0 | Flatsedge plant response rating ([11]; Rate 250 g/ha): 100 | Flatsedge plant response rating ([11]; Rate 500 g/ha): 100 | Plant response rating, Flatsedge ([11]; Rate 62 g/ha): 100 | Plant response rating, Flatsedge ([11]; Rate 125 g/ha): 100 | Plant response rating (0 to 100), Sunflower (Sunflower [12]): 60 | Plant response rating, Lambsquarters [13, 26]: 0 | Plant response rating, Lambsquarters [13, 27]: 90 | Plant response rating, Foxtail, Giant [14, 26]: 60 | Plant response rating, Foxtail, Giant [14, 27]: 80 | Plant response rating, Corn (corn (Zea mays) [15]; [26]): 0 | Plant response rating, Corn (corn (Zea mays) [15]; [27]): 20 | Plant response rating, Blackgrass [16, 26]: 0 | Plant response rating, Blackgrass [16, 27]: 0 | Plant response rating, Morningglory [17, 26]: 20 | Plant response rating, Morningglory [17, 27]: 40 | Plant response rating, Pigweed [18, 26]: 20 | Plant response rating, Pigweed [18, 27]: 90 | Plant response rating, Barnyardgrass [19, 26]: 80 | Plant response rating, Barnyardgrass [19, 27]: 100 | Plant response rating, Surinam grass [20, 26]: 0 | Plant response rating, Surinam grass [20, 27]: 0 | Plant response rating, Cocklebur [21, 26]: 10 | Plant response rating, Cocklebur [21, 27]: 30 | Plant response rating, Wheat [22, 26]: 0 | Plant response rating, Wheat [22, 27]: 0 | Plant response rating, Wild Oat (wild oat (Avena fatua); [26]): 0 | Plant response rating, Wild Oat (wild oat (Avena fatua); [27]): 0 | Plant response rating, Crabgrass [23, 26]: 0 | Plant response rating, Crabgrass [23, 27]: 100 | Plant response rating, Velvetleaf [24, 26]: 0 | Plant response rating, Velvetleaf [24, 27]: 0 | Plant response rating, Sunflower (Sunflower [25]): 0

O=C1C(n2ccc(C3CCC3)n2)SCN1c1cccc(OC(F)(F)F)c1 (centres unmarked) [Compound 38]
Plant response rating, Lambsquarters ([1]; Preemergence, Rate 500 g/ha): 100 | Plant response rating, Lambsquarters ([1]; preemergence, Rate 125 g/ha): 100 | Plant response rating, Foxtail, Giant ([2]; Preemergence, Rate 500 g/ha): 100 | Plant response rating, Foxtail, Giant ([2]; preemergence, Rate 125 g/ha): 0 | Plant response rating, Corn (corn (Zea mays) [3]; Preemergence, Rate 500 g/ha): 0 | Plant response rating, Corn (corn (Zea mays) [3]; preemergence, Rate 125 g/ha): 0 | Plant response rating, Rice (rice (Oryza saliva)): 10 | Plant response rating, Morningglory [4]: 0 | Plant response rating, Pigweed [5]: 100 | Plant response rating, Barnyardgrass ([6]; Preemergence, Rate 500 g/ha): 100 | Plant response rating, Barnyardgrass ([6]; preemergence, Rate 125 g/ha): 70 | Plant response rating, Surinam grass ([7]; Preemergence, Rate 500 g/ha): 60 | Plant response rating, Surinam grass ([7]; preemergence, Rate 125 g/ha): 0 | Plant response rating, Cocklebur ([8]; Preemergence, Rate 500 g/ha): 0 | Plant response rating, Crabgrass ([9]; Preemergence, Rate 500 g/ha): 100 | Plant response rating, Crabgrass ([9]; preemergence, Rate 125 g/ha): 0 | Plant response rating, Velvetleaf [10]: 0 | Flatsedge plant response rating ([11]; Rate 250 g/ha): 100 | Flatsedge plant response rating ([11]; Rate 500 g/ha): 100 | Plant response rating, Flatsedge ([11]; Rate 62 g/ha): 100 | Plant response rating, Flatsedge ([11]; Rate 125 g/ha): 100 | Plant response rating (0 to 100), Sunflower (Sunflower [12]): 60 | Plant response rating, Lambsquarters [13, 26]: 80 | Plant response rating, Lambsquarters [13, 27]: 90 | Plant response rating, Foxtail, Giant [14, 26]: 30 | Plant response rating, Foxtail, Giant [14, 27]: 80 | Plant response rating, Corn (corn (Zea mays) [15]; [26]): 0 | Plant response rating, Corn (corn (Zea mays) [15]; [27]): 0 | Plant response rating, Blackgrass [16, 26]: 0 | Plant response rating, Blackgrass [16, 27]: 0 | Plant response rating, Morningglory [17, 26]: 10 | Plant response rating, Morningglory [17, 27]: 20 | Plant response rating, Pigweed [18, 26]: 60 | Plant response rating, Pigweed [18, 27]: 80 | Plant response rating, Barnyardgrass [19, 26]: 100 | Plant response rating, Barnyardgrass [19, 27]: 100 | Plant response rating, Surinam grass [20, 26]: 0 | Plant response rating, Surinam grass [20, 27]: 0 | Plant response rating, Cocklebur [21, 26]: 40 | Plant response rating, Cocklebur [21, 27]: 80 | Plant response rating, Wheat [22, 26]: 0 | Plant response rating, Wheat [22, 27]: 0 | Plant response rating, Wild Oat (wild oat (Avena fatua); [26]): 0 | Plant response rating, Wild Oat (wild oat (Avena fatua); [27]): 0 | Plant response rating, Crabgrass [23, 26]: 60 | Plant response rating, Crabgrass [23, 27]: 100 | Plant response rating, Velvetleaf [24, 26]: 0 | Plant response rating, Velvetleaf [24, 27]: 70 | Plant response rating, Sunflower (Sunflower [25]): 0

Reference: patent US7138361B2, “Herbicidal heterocycles” (E. I. du Pont de Nemours and Company, priority 2000, dated 2006)
